# Results published in US20250221410A1, “SUBSTITUTED 2-C-AZINES AND SALTS THEREOF, AND USE THEREOF AS HERBICIDAL ACTIVE SUBSTANCES” (BAYER AKTIENGESELLSCHAFT, priority 2022, published 2025).
# What was measured:
# Format in all cases: in vivo
# SETVI: Setaria viridis [1] = experiment: Pre-emergence herbicide efficacy at 1280 g/ha, SETVI; details: visual scoring vs untreated controls
# Method in brief: (§1)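 Seeds sown in sandy loam in pots and covered; compounds as WP or EC applied to covering soil surface as aqueous suspension/emulsion with 0.5% additive at 600 L/ha water. Greenhouse growth ~3 weeks, then visual % efficacy vs untreated controls (100% = plants dead, 0% = like control).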
# [2] = test system: ABUTH: Abutilon theophrasti; experiment: Pre-emergence herbicide efficacy at 1280 g/ha, ABUTH; details: visual scoring after about 3 weeks vs untreated controls
# Method in brief: as §1
# [3] = test system: ECHCG: Echinochloa crus-galli; experiment: Post-emergence herbicidal efficacy at 1280 g/ha, ECHCG; details: rated visually after about 3 weeks vs untreated controls, 100% = plants have died, 0% = like control plants
# Procedure: (§2) Seeds of mono- and dicotyledonous weed plants were placed in plastic pots in sandy loam soil (doubly sown with in each case one species of mono- or dicotyledonous weed plants per pot), covered with soil and cultivated in a greenhouse under controlled growth conditions. 2 to 3 weeks after sowing, the test plants were treated at the one-leaf stage. The compounds of the invention, formulated in the form of wettable powders (WP) or as emulsion concentrates (EC), were applied to the green parts of the plants as aqueous suspension or emulsion with addition of 0.5% additive at a water application rate equivalent to 600 litres per hectare. After the test plants had been kept in the greenhouse under optimum growth conditions for about 3 weeks, the activity of the preparations was rated visually in comparison to untreated controls. For example, 100% activity=the plants have died, 0% activity=like control plants. Tables A1 to A12 below show the effects of selected compounds of the general formula (I) according to Table 1 on various harmful plants and at an application rate corresponding to 1280 g/ha, which were obtained by the trial procedure specified above.
# [4] = test system: DIGSA: Digitaria sanguinalis; experiment: Post-emergence herbicidal efficacy at 1280 g/ha, DIGSA; details: rated visually after about 3 weeks vs untreated controls, 100% = plants have died, 0% = like control plants
# Procedure: as §2
# POAAN: Poa annua [5] = experiment: Pre-emergence herbicide efficacy at 1280 g/ha, POAAN; details: visual scoring after about 3 weeks vs untreated controls
# Method in brief: as §1
# VERPE: Veronica persica [6] = experiment: Post-emergence herbicidal efficacy at 1280 g/ha, VERPE; details: visual rating about 3 weeks after treatment vs untreated controls
# Method in brief: (§3)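 Read-out is visual percent activity relative to untreated controls (100% = plants died, 0% = no effect), scored about 3 weeks after treatment. Application was post-emergence at the one-leaf stage in the greenhouse, as WP or EC in water with 0.5% additive at 600 L/ha.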
# SETVI: Setaria viridis [7] = experiment: Post-emergence herbicidal efficacy at 1280 g/ha, SETVI; details: visual rating about 3 weeks after treatment vs untreated controls
# Method in brief: as §3
# [8] = test system: AMARE: Amaranthus retroflexus; experiment: Post-emergence herbicidal efficacy at 1280 g/ha, AMARE; details: rated visually after about 3 weeks vs untreated controls, 100% = plants have died, 0% = like control plants
# Method in brief: as §3
# [9] = test system: ABUTH: Abutilon theophrasti; experiment: Post-emergence herbicidal efficacy at 1280 g/ha, ABUTH; details: rated visually after about 3 weeks vs untreated controls, 100% = plants have died, 0% = like control plants
# Method in brief: as §3
# [10] = test system: AMARE: Amaranthus retroflexus; experiment: Pre-emergence herbicide efficacy at 1280 g/ha, AMARE; details: visual scoring after about 3 weeks vs untreated controls
# Method in brief: as §1
# KCHSC: Kochia scoparia [11] = experiment: Pre-emergence herbicide efficacy at 1280 g/ha, KCHSC; details: visual scoring after about 3 weeks vs untreated controls
# Method in brief: as §1
# [12] = test system: DIGSA: Digitaria sanguinalis; experiment: Pre-emergence herbicide efficacy at 1280 g/ha, DIGSA; details: visual scoring after about 3 weeks vs untreated controls
# Method in brief: as §1
# KCHSC: Kochia scoparia [13] = experiment: Post-emergence herbicidal efficacy at 1280 g/ha, KCHSC; details: visual rating about 3 weeks after treatment vs untreated controls
# Method in brief: as §3
# STEME: Stellaria media [14] = experiment: Pre-emergence herbicide efficacy at 1280 g/ha, STEME; details: visual scoring vs untreated controls
# Method in brief: as §1
# [15] = test system: ECHCG: Echinochloa crus-galli; experiment: Pre-emergence herbicide efficacy at 1280 g/ha, ECHCG; details: visual scoring after about 3 weeks vs untreated controls
# Method in brief: as §1
# STEME: Stellaria media [16] = experiment: Post-emergence herbicidal efficacy at 1280 g/ha, STEME; details: visual rating about 3 weeks after treatment vs untreated controls
# Method in brief: as §3
# POAAN: Poa annua [17] = experiment: Post-emergence herbicidal efficacy at 1280 g/ha, POAAN; details: visual rating about 3 weeks after treatment vs untreated controls
# Method in brief: as §3
# VERPE: Veronica persica [18] = experiment: Pre-emergence herbicide efficacy at 1280 g/ha, VERPE; details: visual scoring vs untreated controls
# Method in brief: as §1
# [19] = test system: MATIN: Matricaria inodora; experiment: Pre-emergence herbicide efficacy at 1280 g/ha, MATIN; details: visual scoring after about 3 weeks vs untreated controls
# Source text: Seeds of mono- and dicotyledonous weed plants were placed in plastic pots in sandy loam soil (doubly sown with one species each of mono- or dicotyledonous weed plants per pot) and covered with soil. The compounds of the invention, formulated in the form of wettable powders (WP) or as emulsion concentrates (EC), were then applied to the surface of the covering soil as aqueous suspension or emulsion with addition of 0.5% additive at a water application rate of 600 litres per hectare (converted). After the treatment, the pots were placed in a greenhouse and kept under good growth conditions for the test plants. After about 3 weeks, the efficacy of the preparations was scored visually in comparison with untreated controls as percentages. For example, 100% activity=the plants have died, 0% activity=like control plants. Tables C1 to C12 below show the effects of selected compounds of the general formula (I) according to Table 1 on various harmful plants and at an application rate corresponding to 1280 g/ha, which were obtained by the trial procedure specified above.
smiles,measurement,setting,value
Fc1ccc(Cc2ccccc2Cc2ncc(Cl)cn2)cc1 [Example 1-23],Pre-emergence efficacy against SETVI in %,SETVI: Setaria viridis [1],100%
same,Pre-emergence efficacy against ABUTH,[2],100%
same,Post-emergence efficacy at 1280 g/ha against ECHCG in %,[3],100%
same,Post-emergence efficacy at 1280 g/ha against DIGSA in %,[4],100%
same,Pre-emergence efficacy against POAAN,POAAN: Poa annua [5],90%
same,Post-emergence efficacy against VERPE,VERPE: Veronica persica [6],100%
same,Post-emergence efficacy against SETVI,SETVI: Setaria viridis [7],90%
same,Post-emergence efficacy at 1280 g/ha against AMARE in %,[8],100%
same,Post-emergence efficacy at 1280 g/ha against ABUTH in %,[9],100%
same,Pre-emergence efficacy against AMARE,[10],100%
same,Pre-emergence efficacy against KCHSC,KCHSC: Kochia scoparia [11],90%
same,Pre-emergence efficacy against DIGSA,[12],100%
same,Post-emergence efficacy against KCHSC,KCHSC: Kochia scoparia [13],90%
same,Pre-emergence efficacy against STEME in %,STEME: Stellaria media [14],100%
same,Pre-emergence efficacy against ECHCG,[15],100%
same,Post-emergence efficacy against STEME,STEME: Stellaria media [16],90%
same,Post-emergence efficacy against POAAN,POAAN: Poa annua [17],100%
same,Pre-emergence efficacy against VERPE in %,VERPE: Veronica persica [18],100%
Clc1cnc(Oc2ccccc2Cc2ncccn2)nc1 [Example 1-76],Pre-emergence efficacy against ABUTH,[2],90%
same,Post-emergence efficacy against VERPE,VERPE: Veronica persica [6],90%
same,Post-emergence efficacy at 1280 g/ha against AMARE in %,[8],90%
same,Pre-emergence efficacy against AMARE,[10],100%
same,Pre-emergence efficacy against STEME in %,STEME: Stellaria media [14],90%
same,Pre-emergence efficacy against MATIN,[19],90%
same,Pre-emergence efficacy against VERPE in %,VERPE: Veronica persica [18],90%
Fc1cnc(Cc2ccccc2Oc2ncc(F)cn2)nc1 [Example 1-89],Pre-emergence efficacy against SETVI in %,SETVI: Setaria viridis [1],90%
same,Pre-emergence efficacy against ABUTH,[2],100%
same,Pre-emergence efficacy against POAAN,POAAN: Poa annua [5],100%
same,Post-emergence efficacy against VERPE,VERPE: Veronica persica [6],100%
same,Post-emergence efficacy at 1280 g/ha against AMARE in %,[8],100%
same,Post-emergence efficacy at 1280 g/ha against ABUTH in %,[9],90%
same,Pre-emergence efficacy against AMARE,[10],100%
same,Pre-emergence efficacy against KCHSC,KCHSC: Kochia scoparia [11],100%
same,Pre-emergence efficacy against DIGSA,[12],100%
same,Post-emergence efficacy against KCHSC,KCHSC: Kochia scoparia [13],100%
same,Pre-emergence efficacy against STEME in %,STEME: Stellaria media [14],90%
same,Pre-emergence efficacy against MATIN,[19],100%
same,Pre-emergence efficacy against VERPE in %,VERPE: Veronica persica [18],100%
Fc1ccc(Cc2ccccc2Oc2ncc(F)cn2)nc1 [Example 1-93],Pre-emergence efficacy against SETVI in %,SETVI: Setaria viridis [1],100%
same,Pre-emergence efficacy against ABUTH,[2],100%
same,Pre-emergence efficacy against POAAN,POAAN: Poa annua [5],100%
same,Post-emergence efficacy against VERPE,VERPE: Veronica persica [6],100%
same,Post-emergence efficacy at 1280 g/ha against AMARE in %,[8],100%
same,Post-emergence efficacy at 1280 g/ha against ABUTH in %,[9],90%
same,Pre-emergence efficacy against AMARE,[10],100%
same,Pre-emergence efficacy against KCHSC,KCHSC: Kochia scoparia [11],100%
same,Pre-emergence efficacy against DIGSA,[12],100%
same,Post-emergence efficacy against KCHSC,KCHSC: Kochia scoparia [13],100%
same,Pre-emergence efficacy against STEME in %,STEME: Stellaria media [14],100%
same,Pre-emergence efficacy against ECHCG,[15],100%
same,Pre-emergence efficacy against MATIN,[19],100%
same,Post-emergence efficacy against POAAN,POAAN: Poa annua [17],100%
same,Pre-emergence efficacy against VERPE in %,VERPE: Veronica persica [18],100%
Fc1cnc(Oc2ccccc2Cc2ccc(Cl)cn2)nc1 [Example 1-100],Pre-emergence efficacy against SETVI in %,SETVI: Setaria viridis [1],100%
same,Pre-emergence efficacy against ABUTH,[2],100%
same,Pre-emergence efficacy against POAAN,POAAN: Poa annua [5],100%
same,Post-emergence efficacy against VERPE,VERPE: Veronica persica [6],100%
same,Post-emergence efficacy against SETVI,SETVI: Setaria viridis [7],90%
same,Post-emergence efficacy at 1280 g/ha against AMARE in %,[8],100%
same,Post-emergence efficacy at 1280 g/ha against ABUTH in %,[9],90%
same,Pre-emergence efficacy against AMARE,[10],100%
same,Pre-emergence efficacy against KCHSC,KCHSC: Kochia scoparia [11],100%
same,Pre-emergence efficacy against DIGSA,[12],100%
same,Post-emergence efficacy against KCHSC,KCHSC: Kochia scoparia [13],100%
same,Pre-emergence efficacy against STEME in %,STEME: Stellaria media [14],100%
same,Pre-emergence efficacy against ECHCG,[15],100%
same,Post-emergence efficacy against STEME,STEME: Stellaria media [16],90%
same,Pre-emergence efficacy against MATIN,[19],100%
same,Post-emergence efficacy against POAAN,POAAN: Poa annua [17],100%
same,Pre-emergence efficacy against VERPE in %,VERPE: Veronica persica [18],100%
FC(F)(F)CCSc1ccccc1Cc1ncc(Cl)cn1 [Example 1-112],Pre-emergence efficacy against SETVI in %,SETVI: Setaria viridis [1],90%
same,Pre-emergence efficacy against ABUTH,[2],90%
same,Post-emergence efficacy at 1280 g/ha against ECHCG in %,[3],90%
same,Post-emergence efficacy at 1280 g/ha against DIGSA in %,[4],90%
same,Pre-emergence efficacy against POAAN,POAAN: Poa annua [5],90%
same,Post-emergence efficacy against VERPE,VERPE: Veronica persica [6],100%
same,Post-emergence efficacy against SETVI,SETVI: Setaria viridis [7],90%
same,Post-emergence efficacy at 1280 g/ha against AMARE in %,[8],100%
same,Post-emergence efficacy at 1280 g/ha against ABUTH in %,[9],100%
same,Pre-emergence efficacy against AMARE,[10],100%
same,Pre-emergence efficacy against KCHSC,KCHSC: Kochia scoparia [11],100%
same,Pre-emergence efficacy against DIGSA,[12],100%
same,Post-emergence efficacy against KCHSC,KCHSC: Kochia scoparia [13],100%
same,Pre-emergence efficacy against STEME in %,STEME: Stellaria media [14],90%
same,Pre-emergence efficacy against ECHCG,[15],100%
same,Post-emergence efficacy against STEME,STEME: Stellaria media [16],100%
same,Post-emergence efficacy against POAAN,POAAN: Poa annua [17],100%
same,Pre-emergence efficacy against VERPE in %,VERPE: Veronica persica [18],100%
Fc1cnc(Cc2ccccc2-n2cc(C(F)(F)F)cn2)nc1 [Example 1-129],Pre-emergence efficacy against SETVI in %,SETVI: Setaria viridis [1],90%
same,Pre-emergence efficacy against ABUTH,[2],100%
same,Pre-emergence efficacy against POAAN,POAAN: Poa annua [5],90%
same,Post-emergence efficacy against VERPE,VERPE: Veronica persica [6],90%
same,Post-emergence efficacy at 1280 g/ha against AMARE in %,[8],100%
same,Post-emergence efficacy at 1280 g/ha against ABUTH in %,[9],100%
same,Pre-emergence efficacy against AMARE,[10],100%
same,Pre-emergence efficacy against KCHSC,KCHSC: Kochia scoparia [11],90%
same,Pre-emergence efficacy against DIGSA,[12],90%
same,Post-emergence efficacy against KCHSC,KCHSC: Kochia scoparia [13],100%
same,Pre-emergence efficacy against STEME in %,STEME: Stellaria media [14],100%
same,Pre-emergence efficacy against ECHCG,[15],100%
same,Post-emergence efficacy against STEME,STEME: Stellaria media [16],100%
same,Pre-emergence efficacy against MATIN,[19],100%
same,Post-emergence efficacy against POAAN,POAAN: Poa annua [17],100%
same,Pre-emergence efficacy against VERPE in %,VERPE: Veronica persica [18],90%
